# Measured values published in ChEMBL document CHEMBL1201862, “PubChem BioAssay data set” (2004).
#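 Results reflect a 48-hour exposure of cells in 96-well plates to compound at five concentrations. GI50: concentration for 50% inhibition of growth.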 Active and inactive are the calls of the source. Cut-off read from the data, not from the text of the source: active = GI50 up to about 1.1 µM and inactive = higher.
# Columns and labels:
# Assay in all cases: inhibition of tumour cell growth, NCI panel, 48 h
# MCF7 = tested on: MCF7
# COLO 205 = tested on: COLO 205
# EKVX = tested on: EKVX
# OVCAR-8 = tested on: OVCAR-8
# PC-3 = tested on: PC-3
# CAKI-1 = tested on: CAKI-1
# SK-MEL-2 = tested on: SK-MEL-2
# MOLT-4 = tested on: MOLT-4
# SNB-19 = tested on: SNB-19
# OVCAR-5 = tested on: OVCAR-5
# MDA-N = tested on: MDA-N
# OVCAR-4 = tested on: OVCAR-4
# HCT-116 = tested on: HCT-116
# SK-OV-3 = tested on: SK-OV-3
# HT-29 = tested on: HT-29
# SF-539 = tested on: SF-539
# M14 = tested on: M14
# UACC-62 = tested on: UACC-62
# HCC 2998 = tested on: HCC 2998
# CCRF-CEM = tested on: CCRF-CEM
SMILES,GI50 (MCF7),GI50 (COLO 205),GI50 (EKVX),GI50 (OVCAR-8),GI50 (PC-3),GI50 (CAKI-1),GI50 (SK-MEL-2),GI50 (MOLT-4),GI50 (SNB-19),GI50 (OVCAR-5),GI50 (MDA-N),GI50 (OVCAR-4),GI50 (HCT-116),GI50 (SK-OV-3),GI50 (HT-29),GI50 (SF-539),GI50 (M14),GI50 (UACC-62),GI50 (HCC 2998),GI50 (CCRF-CEM)
CC(=O)Nc1ccc(-c2cc(C(=O)O)c3cc4ccccc4cc3n2)cc1,> 100 µM (inactive),> 100 µM (inactive),> 100 µM (inactive),> 100 µM (inactive),> 100 µM (inactive),> 100 µM (inactive),> 100 µM (inactive),> 100 µM (inactive),> 100 µM (inactive),> 100 µM (inactive),> 100 µM (inactive),> 100 µM (inactive),> 100 µM (inactive),> 100 µM (inactive),> 100 µM (inactive),> 100 µM (inactive),> 100 µM (inactive),> 100 µM (inactive),–,–
CC1OC(O)C(O)C(O)C1O (stereo not given),> 100 µM (inactive),> 100 µM (inactive),> 100 µM (inactive),> 100 µM (inactive),> 100 µM (inactive),> 100 µM (inactive),> 100 µM (inactive),–,> 100 µM (inactive),> 100 µM (inactive),> 100 µM (inactive),> 100 µM (inactive),> 100 µM (inactive),> 100 µM (inactive),> 100 µM (inactive),> 100 µM (inactive),> 100 µM (inactive),> 100 µM (inactive),–,–
Cc1nc2ccccc2c(=O)n1NC(=O)c1ccccc1O,> 100 µM (inactive),> 100 µM (inactive),> 100 µM (inactive),> 100 µM (inactive),> 100 µM (inactive),–,–,> 100 µM (inactive),> 100 µM (inactive),> 100 µM (inactive),> 100 µM (inactive),> 100 µM (inactive),> 100 µM (inactive),> 100 µM (inactive),> 100 µM (inactive),> 100 µM (inactive),> 100 µM (inactive),> 100 µM (inactive),> 100 µM (inactive),> 100 µM (inactive)
COc1cccc2c1OC(c1ccc(Cl)cc1)C([N+](=O)[O-])=C2 (stereo not given),1.2 µM (inactive),2.19 µM (inactive),11.7 µM (inactive),1.93 µM (inactive),1.66 µM (inactive),3.48 µM (inactive),–,1.49 µM (inactive),4.28 µM (inactive),2.79 µM (inactive),1.42 µM (inactive),2.17 µM (inactive),1.35 µM (inactive),3.57 µM (inactive),1.35 µM (inactive),–,1.11 µM (active),1.74 µM (inactive),–,0.356 µM (active)
CS(=O)(=O)N(CC(=O)O)Cc1ccccc1,> 100 µM (inactive),> 100 µM (inactive),> 100 µM (inactive),> 100 µM (inactive),> 100 µM (inactive),> 100 µM (inactive),> 100 µM (inactive),> 100 µM (inactive),> 100 µM (inactive),> 100 µM (inactive),> 100 µM (inactive),> 100 µM (inactive),> 100 µM (inactive),> 100 µM (inactive),> 100 µM (inactive),> 100 µM (inactive),> 100 µM (inactive),> 100 µM (inactive),–,> 100 µM (inactive)
O=P(O)(O)c1ccc2c(c1)OCCOCCOCCOCCO2,> 100 µM (inactive),> 100 µM (inactive),> 100 µM (inactive),> 100 µM (inactive),> 100 µM (inactive),–,–,> 100 µM (inactive),> 100 µM (inactive),–,> 100 µM (inactive),–,> 100 µM (inactive),> 100 µM (inactive),> 100 µM (inactive),> 100 µM (inactive),–,> 100 µM (inactive),> 100 µM (inactive),> 100 µM (inactive)
O=C(OC[C@H]1C[C@H]2C(=O)CCC[C@H]2O1)c1ccccc1,> 100 µM (inactive),> 100 µM (inactive),> 100 µM (inactive),> 100 µM (inactive),> 100 µM (inactive),> 100 µM (inactive),> 100 µM (inactive),> 100 µM (inactive),> 100 µM (inactive),> 100 µM (inactive),> 100 µM (inactive),> 100 µM (inactive),> 100 µM (inactive),> 100 µM (inactive),> 100 µM (inactive),> 100 µM (inactive),> 100 µM (inactive),> 100 µM (inactive),–,> 100 µM (inactive)
C[n+]1c(-c2ccc(/C=N\N3CCN(/N=C/c4ccc(-c5cn6ccsc6[n+]5C)cc4)CC3)cc2)cn2ccsc21,29.9 µM (inactive),16.8 µM (inactive),43.5 µM (inactive),41.7 µM (inactive),> 100 µM (inactive),34 µM (inactive),31.8 µM (inactive),85.3 µM (inactive),38.4 µM (inactive),> 100 µM (inactive),25.7 µM (inactive),28.4 µM (inactive),33.3 µM (inactive),8.04 µM (inactive),40.8 µM (inactive),30.3 µM (inactive),44.8 µM (inactive),22.1 µM (inactive),–,36.7 µM (inactive)
Cc1cc2c(=O)c3ccccc3oc2c(C#N)c1C,> 100 µM (inactive),> 100 µM (inactive),> 100 µM (inactive),> 100 µM (inactive),40.3 µM (inactive),> 100 µM (inactive),–,> 100 µM (inactive),> 100 µM (inactive),> 100 µM (inactive),> 100 µM (inactive),> 100 µM (inactive),> 100 µM (inactive),> 100 µM (inactive),43.6 µM (inactive),–,> 100 µM (inactive),–,> 100 µM (inactive),> 100 µM (inactive)
Fc1cccc(Cl)c1/C=N\N=C1c2ccccc2-c2ccccc21,11.8 µM (inactive),> 100 µM (inactive),> 100 µM (inactive),79.8 µM (inactive),97.9 µM (inactive),> 100 µM (inactive),> 100 µM (inactive),66.4 µM (inactive),98.9 µM (inactive),> 100 µM (inactive),48.3 µM (inactive),49.4 µM (inactive),> 100 µM (inactive),> 100 µM (inactive),58.9 µM (inactive),49.4 µM (inactive),> 100 µM (inactive),> 100 µM (inactive),–,> 100 µM (inactive)
CC(=O)OC1CC2(C)C(OC(C)=O)CC1C2(C)C (stereo not given),> 100 µM (inactive),> 100 µM (inactive),–,> 100 µM (inactive),> 100 µM (inactive),–,–,> 100 µM (inactive),> 100 µM (inactive),> 100 µM (inactive),> 100 µM (inactive),> 100 µM (inactive),> 100 µM (inactive),> 100 µM (inactive),> 100 µM (inactive),> 100 µM (inactive),> 100 µM (inactive),> 100 µM (inactive),> 100 µM (inactive),> 100 µM (inactive)
